Columns and labels:
[1] = system: endothelial cells; test: Stress fibre (SF) formation after SRBW exposure under ROCK inhibition; type: cell-based, human; settings: initial sonochallenge phase, early times (<0.3 hrs) after SRBW; data not shown
[2] = system: THP-1 cells; test: Wash assay (adherence assay) of SRBW stimulated monocytes pretreated with inhibitors/chelators; type: cell-based; settings: SRBW Treatment 4, 36 hours post exposure, BAPTA-AM 20 μM, Thapsigargin 300 nM, TPEN 1 mM, GGTI-298 15 μM, HJC0197 25 μM, FIG. 18, 19
Procedure: Cell culture and Mechanostimulation: THP-1 cells were obtained from CellBank (Children Medical Research institute, NSW) and grown in suspension in RPMI+Glutamax supplemented with 10% (v/v) heat-inactivated FBS with 1% penicillin-streptomycin in a humidified 37° C., 5% CO2 incubator. Low passage (passage 15 or less) cells were seeded at cell density ranging from 0.5×10^5-0.5×10^6 per cm^2. The cells were then stimulated with SRBW at a frequency of 10 Mhz and at the indicated input power and duration. The cells were stimulated and processed at different post-exposure incubation times (24 h, 36 h, 48 h, 72 h, Day 5, Day 7, Day 9).
Wash Assay: Control (untreated) and treated cells were initially characterised by wash-assay or adherence assay. Undifferentiated THP1 cells were non-adherent cells. Accordingly, cells were initially characterised by determining the percentage of adherent cells. The spent media from control and treated wells were carefully collected into labelled centrifuge tubes. The wells were washed three times with media. After each wash, the wash media was collected into corresponding centrifuge tubes. The tubes were then centrifuged at 250×g for 5 minutes. The supernatant was carefully removed, and the pellet was homogeneously mixed with 1×PBS. The cells collected from spent and wash media were counted trypan blue exclusion assay using a hemocytometer. The percentage of adherent cells was calculated by (number of cells from control wells—number of cells from treated wells/number of cells from control wells)×100. The viability was also determined using the same. The change in the cellular morphology was also recorded using Nikon.

[3] = system: HUVEC monolayers; test: Intracellular cAMP (cyclic AMP XP assay) in SRBW mechanostimulated cells with Ca2+ inhibitors and chelators; type: cell-based, human; settings: for cAMP release: SRBW pretreatment in the presence of extracellular calcium, then sequential treatment, FIG. 2(e-iv), 2(e-v); for cAMP levels under SRBW mechanostimulation: pretreatment with BAPTA-AM and TPEN together, FIG. 2(e-ii)
Procedure: (§1) Endothelial cells were cultured in Endothelial Cell Growth Medium-2 (EGM™2) BulletKit™ in a humidified incubator maintained at 37° C. and 5% CO2. The cells were grown in a standard T25 flask until they reached 80-90% confluency, following which they were detached using 0.05% trypsin-EDTA, reseeded in the culture plates at a density of 5000 cells/cm2 and incubated until they reached 90-95% confluency. The confluent monolayer is then exposed to the SRBW irradiation at the prescribed input power and duration. The cells were immediately processed for analysis upon removal of the acoustic field at various post-exposure incubation timepoints.
cAMP concentrations were measured through a cyclic AMP XP™ assay. Briefly, the EC monolayers were washed in Tyrode's buffer (137mMsodium chloride, 12mMsodium bi-carbonate, 5.5 mM glucose, 2 mM potassium chloride, 1mMmagnesium chloride and 0.3 mM disodium hydrogen phosphate) at pH 7.4 supplemented with […] IBMX—a phosphodiesterase inhibitor, to prevent the hydrolysis of cAMP. The cells were then exposed to the SRBW followed by incubation at different time points, after which the cells were lysed in 100 μl of lysis buffer that was supplied with the kit. 25 μl of the cell lysate and HRP-linked cAMP solution was subsequently transferred into the cAMP assay microtiter plates provided and incubated for 3 hrs at room temperature. Following incubation, the plate was washed four times and the liquid discarded. 100 μl of the supplied 3,3′,5,5″-tetramethylbenzidine (TMB) was then added and the solution incubated in the dark for 15 mins. The reaction was ceased by adding 100 μl of the provided STOP solution and its absorbance measured at 450 nm using a spectrophotometric plate reader (CLARIOstar, BMG LabTech, Mornington, VIC, Australia). The average of three measurements per treatment group was taken for cells from each individual culture, from which the cAMP concentrations can be calculated using a standard curve.

[4] = system: HUVEC monolayers; test: VE-cadherin remodelling, CAB formation, linearity index and AJ length in SRBW mechanostimulated cells with pathway inhibitors; type: cell-based, human; settings: for Linearity index / AJ length (adhesion site length) / CAB formation: SRBW 8 mins at 1.5 W, GGTI-298 15 μM, NSC23766 10 μM; for Linearity index / AJ length (adhesion site length): 30 mins post exposure; for Linearity index: FIG. 6(b); for AJ length (adhesion site length): FIG. 6(c)
[5] = system: HUVEC monolayers; type: cell-based, human; settings: SRBW 8 mins at 1.5 W; in the presence of piezo channel inhibitor; FIG. 4(b)
Procedure: as §1
Free cytosolic calcium levels were determined using the fluorescent calcium indicator Fura-2AM. In brief, the EC monolayers were incubated in […] Fura-2AM in Opti-MEM™ reduced serum medium supplemented with 2% (vol/vol) heat-inactivated FBS at 37° C. in the dark. […] The fluorescence emission intensity at 510 nm in individual wells at excitation wavelengths of 340 and 380 nm were measured using a spectrophotometric plate reader (CLARIOstar® BMG LabTech, Mornington, VIC, Australia). The ratio of Fura-2 AM fluorescence emission in response to 340 nm and 380 nm excitation (340/380) was calculated and expressed in terms of the fold change with respect to that of the respective control (unexcited) cells. […]

C[C@@H](N)[C@H]1CC[C@H](C(=O)Nc2ccncc2)CC1.Cl.Cl [Y27632, (R)-(+)-trans-4-(1-aminoethyl)-N-(4-pyridyl)cyclohexanecarboxamide dihydrochloride]
stress fibre (SF) formation [1]: SF attenuation

c1ccc(CN(CCN(Cc2ccccn2)Cc2ccccn2)Cc2ccccn2)nc1 [TPEN, N,N,N′,N′-tetrakis(2-pyridinylmethyl)-1,2-ethanediamine]
number of adherent cells [2]: failed to transform to adherent cells
cAMP release [3]: affected
cAMP levels under SRBW mechanostimulation [3]: increased under the SRBW mechanostimulation only when extracellular calcium is present

CCN(CC)CCCC(C)Nc1nc(C)cc(Nc2ccc3nc(C)cc(N)c3c2)n1.Cl.Cl.Cl (racemic) [NSC23766, N6-[2-(4-diethylamino-1-methyl-butylamino)-6-methyl-pyrimidin-4-yl]-2-methyl-quinoline-4,6-diamine trihydrochloride]
Linearity index [4]: departure from linearity
AJ length (adhesion site length) [4]: increased adhesion site length
CAB formation ([4]; data not shown): only limited CAB formation

CCCCCCOC(=O)[C@]1(O)C[C@H]2O[C@]1(C)n1c3ccccc3c3c4c(c5c6ccccc6n2c5c31)C(=O)NC4 [KT5720, (9S,10S,12R)-2,3,9,10,11,12-hexahydro-10-hydroxy-9-methyl-1-oxo-9,12-epoxy-1H-diindolo[1,2,3-fg:3′,2′,1′-kl]pyrrolo[3,4-i][1,6]benzodiazocine-10-carboxylic acid hexyl ester]
VE-cadherin remodelling and CAB formation ([4]; treated prior to SRBW mechanostimulation, data not shown): quelled

Cc1ccc(C)c(CSc2nc(C3CCCC3)c(C#N)c(=O)[nH]2)c1 [HJC0197, 4-cyclopentyl-2-[[(2,5-dimethylphenyl)methyl]thio]-1,6-dihydro-6-oxo-5-pyrimidinecarbonitrile]
number of adherent cells [2]: significantly reduced

COC(=O)[C@H](CC(C)C)NC(=O)c1ccc(NC[C@@H](N)CS)cc1-c1cccc2ccccc12.O.O=C(O)C(F)(F)F [GGTI-298, N-[[4-(2-(R)-amino-3-mercaptopropyl)amino]-2-naphthylbenzoyl]leucine methyl ester trifluoroacetate salt hydrate]
number of adherent cells [2]: significantly reduced
Linearity index [4]: departure from linearity
AJ length (adhesion site length) [4]: increased adhesion site length
CAB formation ([4]; data not shown): only limited CAB formation

N.N.N.N.N.N.N.N.N.N.N.N.N.N.[Cl-].[Cl-].[Cl-].[Cl-].[Cl-].[Cl-].[O-2].[O-2].[Ru+3].[Ru+3].[Ru+4] [ruthenium red]
intracellular calcium under the high frequency excitation [5]: abatement of intracellular calcium

C[C@H](CCC(=O)O)C[C@H](C)C[C@H](C)C(=O)/C=C(\O)[C@H](C)C[C@H](C)C/C=C/[C@@H](C)[C@@H](O)[C@@H](C)[C@@H](O)C[C@@H]1CC[C@@](C)([C@H]2CC[C@@](C)([C@@H](C)O)O2)O1 [ionomycin]
cAMP release [3]: affected
cAMP levels ([3]; SRBW pretreatment, then chelation/inhibition, then ionomycin added, FIG. 2(e-iii), 40-50 mins): cAMP levels were observed to rise

CC(=O)OCOC(=O)CN(CC(=O)OCOC(C)=O)c1ccccc1OCCOc1ccccc1N(CC(=O)OCOC(C)=O)CC(=O)OCOC(C)=O [BAPTA-AM, 1,2-bis(2-aminophenoxy)ethane-N,N,N′,N′-tetraacetic acid tetrakis(acetoxymethyl ester)]
number of adherent cells [2]: reduced significantly
cAMP release [3]: not suppressed
cAMP levels under SRBW mechanostimulation [3]: increased under the SRBW mechanostimulation only when extracellular calcium is present

— patent US20260159826A1, “METHOD OF MODIFYING CELLS” (ROYAL MELBOURNE INSTITUTE OF TECHNOLOGY, priority 2022, published 2026)
